Key:
human CD73 = target: T1, human CD73 (Homo sapiens, UniProt P21589); test: Inhibitor activity against CD73 in cell based assay (CD73 expressing CHO-K1 cells); details: CHO-K1 cells expressing human CD73, 150 μM AMP, 4 hours of incubation; read-out: CHO-K1 CELL VARIANT: CD73 IC50
T1 construct: expressed in transfected cells
T1 sequence (P21589 27-549): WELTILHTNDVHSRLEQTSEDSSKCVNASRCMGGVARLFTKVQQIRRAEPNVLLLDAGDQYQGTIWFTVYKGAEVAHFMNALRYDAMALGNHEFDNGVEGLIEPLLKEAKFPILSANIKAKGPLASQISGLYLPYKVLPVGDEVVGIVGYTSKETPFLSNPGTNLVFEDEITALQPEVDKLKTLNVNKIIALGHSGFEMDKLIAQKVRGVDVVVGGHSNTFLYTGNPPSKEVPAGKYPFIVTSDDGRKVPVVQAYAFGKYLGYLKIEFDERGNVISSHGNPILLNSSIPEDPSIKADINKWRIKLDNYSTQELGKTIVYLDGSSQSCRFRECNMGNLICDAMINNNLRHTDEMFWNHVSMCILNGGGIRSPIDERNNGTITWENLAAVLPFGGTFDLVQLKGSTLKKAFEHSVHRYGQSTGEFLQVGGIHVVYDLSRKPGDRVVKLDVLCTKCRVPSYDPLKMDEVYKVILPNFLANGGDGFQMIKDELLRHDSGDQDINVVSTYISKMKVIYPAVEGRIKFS
Outline: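 Residual supernatant AMP was quantified via CellTiter-Glo luminescence (1 μM ATP added, 30 min, room temperature) after a 4 h exposure of human CD73-expressing CHO-K1 cells to 150 μM AMP plus compound, top final 10 μM, 8 points. IC50 came from nonlinear regression of percent inhibition.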

[1] = target: T2, Human CD73 (amino acid residues 27-549) (Homo sapiens, UniProt P21589); test: CD73 enzymatic assay (luciferase-based indirect assay, CellTiter-Glo); format: biochemical; details: 0.4 nM CD73, 150 μM AMP, 1 hour at room temperature
T2 construct: Human CD73 (amino acid residues 27-549); His tag (N); made in house; host or cells: E. coli
T2 sequence (P21589 27-549): T1 sequence (P21589 27-549)
Outline: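 Residual AMP inhibits luciferase, so luminescence reports CD73 turnover; read with CellTiter-Glo 2.0 plus 1 μM final ATP, 30 min. Reaction used 0.4 nM N-His CD73 (27-549, E. coli), 150 μM AMP, HEPES pH 7.4 with Tween 20, 1 h at room temperature. IC50 fitted by nonlinear regression.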

An IC50 (human CD73) of 0.001 to 10 µM and an IC50 [1] of 0.001 to 10 µM were found for `N#Cc1ccc(C(=O)N[C@H]2CC[C@H](NC(=O)O[C@@H]3CCN(c4cn[nH]c(=O)c4Cl)C3)CC2)cc1` [P-0261, (R)-1-(5-chloro-6-oxo-1,6-dihydropyridazin-4-yl)pyrrolidin-3-yl ((1r,4R)-4-(4-cyanobenzamido)cyclohexyl) carbamate] in this work.

An IC50 (human CD73) of 0.001 to 10 µM and an IC50 [1] of 0.001 to 10 µM were found for `CC(C)(C)C(=O)N[C@H]1CC[C@H](NC(=O)O[C@@H]2CCN(c3cn[nH]c(=O)c3Cl)C2)CC1` [P-0262, (R)-1-(5-chloro-6-oxo-1,6-dihydropyridazin-4-yl)pyrrolidin-3-yl ((1r,4R)-4-pivalamidocyclohexyl) carbamate] in this work.

An IC50 (human CD73) of 10 to 100 µM and an IC50 [1] of 0.001 to 10 µM were found for `CC(C)C(=O)N[C@H]1CC[C@H](NC(=O)O[C@@H]2CCN(c3cn[nH]c(=O)c3Cl)C2)CC1` [P-0263] in this work.

An IC50 (human CD73) of 0.001 to 10 µM and an IC50 [1] of 0.001 to 10 µM were found for `O=C(N[C@H]1CC[C@H](NC(=O)c2ccncc2)CC1)O[C@@H]1CCN(c2cn[nH]c(=O)c2Cl)C1` [P-0264, (R)-1-(5-chloro-6-oxo-1,6-dihydropyridazin-4-yl)pyrrolidin-3-yl ((1r,4R)-4-(isonicotinamido)cyclohexyl) carbamate] in this work.

An IC50 (human CD73) of 0.001 to 10 µM and an IC50 [1] of 0.001 to 10 µM were found for `O=C(N[C@H]1CC[C@H](NC(=O)c2ccc(Cl)cc2)CC1)O[C@@H]1CCN(c2cn[nH]c(=O)c2Cl)C1` [P-0265, (R)-1-(5-chloro-6-oxo-1,6-dihydropyridazin-4-yl)pyrrolidin-3-yl ((1r,4R)-4-(4-chlorobenzamido)cyclohexyl) carbamate] in this work.

An IC50 (human CD73) of 0.001 to 10 µM and an IC50 [1] of 0.001 to 10 µM were found for `O=C(N[C@H]1CC[C@H](NC(=O)c2ccccc2Cl)CC1)O[C@@H]1CCN(c2cn[nH]c(=O)c2Cl)C1` [P-0266, (R)-1-(5-chloro-6-oxo-1,6-dihydropyridazin-4-yl)pyrrolidin-3-yl ((1r,4R)-4-(2-chlorobenzamido)cyclohexyl) carbamate] in this work.

An IC50 (human CD73) of 0.001 to 10 µM and an IC50 [1] of 0.001 to 10 µM were found for `O=C(N[C@H]1CC[C@H](NC(=O)c2c(F)cccc2F)CC1)O[C@@H]1CCN(c2cn[nH]c(=O)c2Cl)C1` [P-0267, (R)-1-(5-chloro-6-oxo-1,6-dihydropyridazin-4-yl)pyrrolidin-3-yl ((1r,4R)-4-(2,6-difluorobenzamido)cyclohexyl) carbamate] in this work.

An IC50 (human CD73) of 0.001 to 10 µM and an IC50 [1] of 0.001 to 10 µM were found for `Cc1cccc(F)c1C(=O)N[C@H]1CC[C@H](NC(=O)O[C@@H]2CCN(c3cn[nH]c(=O)c3Cl)C2)CC1` [P-0268, (R)-1-(5-chloro-6-oxo-1,6-dihydropyridazin-4-yl)pyrrolidin-3-yl ((1r,4R)-4-(2-fluoro-6-methylbenzamido)cyclohexyl) carbamate] in this work.

An IC50 (human CD73) of 0.001 to 10 µM and an IC50 [1] of 0.001 to 10 µM were found for `CCN(CC)CC(=O)N[C@H]1CC[C@H](NC(=O)O[C@@H]2CCN(c3cn[nH]c(=O)c3Cl)C2)CC1` [P-0269, (R)-1-(5-chloro-6-oxo-1,6-dihydropyridazin-4-yl)pyrrolidin-3-yl ((1r,4R)-4-(2-(diethylamino)acetamido)cyclohexyl)carbamate] in this work.

An IC50 (human CD73) of 0.001 to 10 µM and an IC50 [1] of 0.001 to 10 µM were found for `O=C(CN1CCOCC1)N[C@H]1CC[C@H](NC(=O)O[C@@H]2CCN(c3cn[nH]c(=O)c3Cl)C2)CC1` [P-0270, (R)-1-(5-chloro-6-oxo-1,6-dihydropyridazin-4-yl)pyrrolidin-3-yl ((1r,4R)-4-(2-morpholinoacetamido)cyclohexyl)carbamate] in this work.

An IC50 (human CD73) of 0.001 to 10 µM and an IC50 [1] of 0.001 to 10 µM were found for `O=C(NC1CC1)N[C@H]1CC[C@H](NC(=O)O[C@@H]2CCN(c3cn[nH]c(=O)c3Cl)C2)CC1` [P-0271, (R)-1-(5-chloro-6-oxo-1,6-dihydropyridazin-4-yl)pyrrolidin-3-yl ((1r,4R)-4-(3-cyclopropylureido)cyclohexyl) carbamate] in this work.

An IC50 (human CD73) of 0.001 to 10 µM and an IC50 [1] of 0.001 to 10 µM were found for `O=C(Nc1ccc(Cl)cc1)N[C@H]1CC[C@H](NC(=O)O[C@@H]2CCN(c3cn[nH]c(=O)c3Cl)C2)CC1` [P-0272, (R)-1-(5-chloro-6-oxo-1,6-dihydropyridazin-4-yl)pyrrolidin-3-yl ((1r,4R)-4-(3-(4-chlorophenyl)ureido)cyclohexyl)carbamate] in this work.

An IC50 (human CD73) of 0.001 to 10 µM and an IC50 [1] of 0.001 to 10 µM were found for `C[C@]1(O)CC[C@@H](NC(=O)O[C@@H]2CCN(c3cn[nH]c(=O)c3Cl)C2)CC1` [P-0273, (R)-1-(5-chloro-6-oxo-1,6-dihydropyridazin-4-yl)pyrrolidin-3-yl ((1s,4S)-4-hydroxy-4-methylcyclohexyl)carbamate] in this work.

An IC50 (human CD73) of 0.001 to 10 µM and an IC50 [1] of 0.001 to 10 µM were found for `O=C(N[C@H]1CC[C@@H](O)CC1)O[C@@H]1CCN(c2cn[nH]c(=O)c2Cl)C1` [P-0274, (R)-1-(5-chloro-6-oxo-1,6-dihydropyridazin-4-yl)pyrrolidin-3-yl ((1s,4S)-4-hydroxycyclohexyl)carbamate] in this work.

An IC50 (human CD73) of 0.001 to 10 µM and an IC50 [1] of 0.001 to 10 µM were found for `N#C[C@H]1CC[C@H](NC(=O)O[C@@H]2CCN(c3cn[nH]c(=O)c3Cl)C2)CC1` [P-0275, (R)-1-(5-chloro-6-oxo-1,6-dihydropyridazin-4-yl)pyrrolidin-3-yl ((1r,4R)-4-cyanocyclohexyl)carbamate] in this work.

An IC50 (human CD73) of 0.001 to 10 µM and an IC50 [1] of 0.001 to 10 µM were found for `O=C(NC1CCC2(CC1)CC2)O[C@@H]1CCN(c2cn[nH]c(=O)c2Cl)C1` [P-0276, (R)-1-(5-chloro-6-oxo-1,6-dihydropyridazin-4-yl)pyrrolidin-3-yl spiro[2.5]octan-6-ylcarbamate] in this work.

An IC50 (human CD73) of 0.001 to 10 µM and an IC50 [1] of 0.001 to 10 µM were found for `O=C(N[C@H]1CC[C@H](F)CC1)O[C@@H]1CCN(c2cn[nH]c(=O)c2Cl)C1` [P-0277, (R)-1-(5-chloro-6-oxo-1,6-dihydropyridazin-4-yl)pyrrolidin-3-yl ((1r,4R)-4-fluorocyclohexyl)carbamate] in this work.

An IC50 (human CD73) of 0.001 to 10 µM and an IC50 [1] of 0.001 to 10 µM were found for `CC1(C)CCCC(NC(=O)O[C@@H]2CCN(c3cn[nH]c(=O)c3Cl)C2)C1` (stereo partly drawn) [P-0278, (R)-1-(5-chloro-6-oxo-1,6-dihydropyridazin-4-yl)pyrrolidin-3-yl (3,3-dimethylcyclohexyl)carbamate] in this work.

An IC50 (human CD73) of 0.001 to 10 µM and an IC50 [1] of 0.001 to 10 µM were found for `C[C@H]1CCCC[C@H]1NC(=O)O[C@@H]1CCN(c2cn[nH]c(=O)c2Cl)C1` [P-0279, (R)-1-(5-chloro-6-oxo-1,6-dihydropyridazin-4-yl)pyrrolidin-3-yl ((1R,2S)-2-methylcyclohexyl)carbamate] in this work.

An IC50 (human CD73) of 0.001 to 10 µM and an IC50 [1] of 0.001 to 10 µM were found for `O=C1CC(NC(=O)O[C@@H]2CCN(c3cn[nH]c(=O)c3Cl)C2)CCN1` (stereo partly drawn) [P-0280, (R)-1-(5-chloro-6-oxo-1,6-dihydropyridazin-4-yl)pyrrolidin-3-yl (2-oxopiperidin-4-yl)carbamate] in this work.

An IC50 (human CD73) of 0.001 to 10 µM and an IC50 [1] of 0.001 to 10 µM were found for `CN1CCC(NC(=O)O[C@@H]2CCN(c3cn[nH]c(=O)c3Cl)C2)CC1=O` (stereo partly drawn) [P-0281, (R)-1-(5-chloro-6-oxo-1,6-dihydropyridazin-4-yl)pyrrolidin-3-yl (1-methyl-2-oxopiperidin-4-yl)carbamate] in this work.

An IC50 (human CD73) of 10 to 100 µM and an IC50 [1] of 0.001 to 10 µM were found for `O=C(O)Cn1ncc(N2CC[C@@H](OC(=O)NC3CCC(F)(F)CC3)C2)c(Cl)c1=O` [P-0282, (R)-2-(5-chloro-4-(3-(((4,4-difluorocyclohexyl)carbamoyl)oxy)pyrrolidin-1-yl)-6-oxopyridazin-1(6H)-yl)acetic acid] in this work.

An IC50 (human CD73) of 10 to 100 µM and an IC50 [1] of 100 to 1000 µM were found for `O=C(O)Cn1ncc(N2CC[C@@H](OC(=O)NC3CCC(F)(F)CC3)C2)cc1=O` [P-0283, (R)-2-(4-(3-(((4,4-difluorocyclohexyl)carbamoyl)oxy)pyrrolidin-1-yl)-6-oxopyridazin-1(6H)-yl)acetic acid] in this work.

An IC50 (human CD73) of 0.001 to 10 µM and an IC50 [1] of 0.001 to 10 µM were found for `O=C(NC1CCC(F)(F)CC1)O[C@@H]1CCN(c2cnn(CC(O)C(F)(F)F)c(=O)c2Cl)C1` (stereo partly drawn) [P-0284, (3R)-1-(5-chloro-6-oxo-1-(3,3,3-trifluoro-2-hydroxypropyl)-1,6-dihydropyridazin-4-yl)pyrrolidin-3-yl (4,4-difluorocyclohexyl)carbamate] in this work.

An IC50 (human CD73) of 10 to 100 µM and an IC50 [1] of 0.001 to 10 µM were found for `NC(=O)Cn1ncc(N2CC[C@@H](OC(=O)NC3CCC(F)(F)CC3)C2)c(Cl)c1=O` [P-0285, (R)-1-(1-(2-amino-2-oxoethyl)-5-chloro-6-oxo-1,6-dihydropyridazin-4-yl)pyrrolidin-3-yl (4,4-difluorocyclohexyl)carbamate] in this work.

An IC50 (human CD73) of 10 to 100 µM and an IC50 [1] of 0.001 to 10 µM were found for `N#CCn1ncc(N2CC[C@@H](OC(=O)NC3CCC(F)(F)CC3)C2)c(Cl)c1=O` [P-0286, (R)-1-(5-chloro-1-(cyanomethyl)-6-oxo-1,6-dihydropyridazin-4-yl)pyrrolidin-3-yl (4,4-difluorocyclohexyl)carbamate] in this work.

An IC50 (human CD73) of 0.001 to 10 µM and an IC50 [1] of 0.001 to 10 µM were found for `O=C(NC1CCC(F)(F)CC1)O[C@@H]1CCN(c2cnn(CCO)c(=O)c2Cl)C1` [P-0287, (R)-1-(5-chloro-1-(2-hydroxyethyl)-6-oxo-1,6-dihydropyridazin-4-yl)pyrrolidin-3-yl (4,4-difluorocyclohexyl)carbamate] in this work.

— patent US12509444B2, “Compounds and methods for CD73 modulation and indications therefor” (Plexxikon Inc., priority 2019, dated 2025)
